Some test systems named below: UACC-257; HCT-15; TK-10; SF-268; OVCAR-4; SK-MEL-2; PC-3; MDA-MB-231; T47D; RPMI-8226; MCF7; NCI-H460; COLO 205; SK-MEL-5; A549; SR; SN12C; M14; HT-29; SK-OV-3.
Test in all cases: NCI anticancer screen, dose series, 48 h

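Exposure lasted 48 hours, with cells grown in 96-well plates and compounds tested at five concentrations. GI50 = concentration required for 50% inhibition of growth.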 Calls of active or inactive are those of the source. Cut-off read from the data, not from the text of the source: active = GI50 up to about 1.1 µM and inactive = higher. Some results are limits rather than exact numbers.

The values below come from ChEMBL document CHEMBL1201862, “PubChem BioAssay data set” (2004).

With `Oc1cc(-c2ccccc2)cn2c1nc1ccccc12`, the GI50 was > 63.5 µM (inactive) with UACC-257; 0.643 µM in the assay on HCT-15; > 100 µM (inactive) in the assay on TK-10; 3.92 µM (inactive) with SF-268; 4.23 µM (inactive) with OVCAR-4; 2.11 µM (inactive) with SK-MEL-2. For the same molecule, the GI50 with PC-3 is 3.85 µM (inactive); in the assay with MDA-MB-231 it was 0.382 µM (active); in the assay on T47D, 1.5 µM (inactive); in the assay on RPMI-8226 it was 2.3 µM (inactive); in the assay on MCF7, 1.22 µM (inactive); in the assay on NCI-H460, 0.76 µM (active). Further, the GI50 is 21.3 µM (inactive) with COLO 205; 0.476 µM (active) in the assay on SK-MEL-5; 1.73 µM (inactive) with A549; 3.21 µM (inactive) in the assay on SR; 4.06 µM (inactive) in the assay with SN12C; 0.9 µM (active) in the assay on M14. Besides, the GI50 with HT-29 was 8.63 µM (inactive); in the assay on SK-OV-3, 1.09 µM (active).

Consider `Oc1cn(-c2ccc(Cl)cc2)nc1-c1n[nH]c(=S)n1-c1ccccc1`, for which the GI50 in the assay on UACC-257 is 20.7 µM (inactive); in the assay with HCT-15 it was 3.36 µM; in the assay with TK-10, 22 µM (inactive); with SF-268, 10.4 µM (inactive); in the assay on OVCAR-4 it was 52.6 µM (inactive); in the assay on SK-MEL-2, 22.4 µM (inactive). Further, the GI50 in the assay on PC-3 is 27.5 µM (inactive); in the assay with MDA-MB-231, 57.5 µM (inactive); in the assay on T47D, 19.5 µM (inactive); in the assay on RPMI-8226, 5.46 µM (inactive); in the assay on MCF7 it was 4.42 µM (inactive); with NCI-H460, 10.6 µM (inactive). Besides, the GI50 in the assay on COLO 205 is 23 µM (inactive); in the assay with SK-MEL-5, 4.19 µM (inactive); in the assay on A549 it was 14.1 µM (inactive); in the assay on SR, 2.97 µM (inactive); with SN12C it was 17.8 µM (inactive); with M14, 7 µM (inactive). Moreover, the GI50 with HT-29 was 19.8 µM (inactive); with SK-OV-3 it was 17.2 µM (inactive).

As to `COc1ccc(NC(=O)CSc2nnc(-c3ccc(/N=C\c4ccc(Cl)cc4)cc3)o2)cc1`, the GI50 with UACC-257 was 46.5 µM (inactive); in the assay with HCT-15, 4.78 µM; in the assay on TK-10 it was > 100 µM (inactive); in the assay with SF-268, 13.6 µM (inactive); with OVCAR-4, 23.5 µM (inactive); with SK-MEL-2, 15 µM (inactive). Besides, the GI50 with PC-3 is 22 µM (inactive); in the assay with MDA-MB-231, 34.5 µM (inactive); with T47D, 21.2 µM (inactive); with RPMI-8226, 9.06 µM (inactive); with MCF7, 23.2 µM (inactive); in the assay on NCI-H460 it was > 67.3 µM (inactive). Moreover, the GI50 with COLO 205 is 20 µM (inactive); in the assay on SK-MEL-5 it was 27.3 µM (inactive); in the assay on A549 it was > 100 µM (inactive); in the assay on SR, 13.3 µM (inactive); in the assay with SN12C, 16.1 µM (inactive); in the assay with M14 it was 26.5 µM (inactive). Also, the GI50 in the assay with HT-29 was 42.8 µM (inactive); with SK-OV-3, 51.8 µM (inactive).

As for `c1cc2nnc1SCCSCCCSCCS2`, the GI50 was > 100 µM (inactive) in the assay with UACC-257; above 100 µM in the assay on HCT-15; > 100 µM (inactive) in the assay on TK-10; 2.88 µM (inactive) in the assay on SF-268; 34.6 µM (inactive) in the assay on OVCAR-4; > 100 µM (inactive) in the assay on SK-MEL-2. Also, the GI50 is > 100 µM (inactive) with PC-3; 29.6 µM (inactive) in the assay on MDA-MB-231; > 100 µM (inactive) in the assay on T47D; > 100 µM (inactive) in the assay with RPMI-8226; > 100 µM (inactive) with MCF7; > 100 µM (inactive) in the assay with NCI-H460. For the same molecule, the GI50 in the assay on COLO 205, with SK-MEL-5, in the assay with A549, in the assay on SR, in the assay on SN12C and with M14 was > 100 µM (inactive) throughout. Also, the GI50 in the assay on HT-29 and with SK-OV-3 was > 100 µM (inactive) throughout.
